# According to patent publication US6800659B2, “Compounds for modulating cell proliferation” (HSC Research and Development Limited Partnership, priority 2000, dated 2004):
# Test system: normal bone marrow cells
# Assay: CFU-GEMM assay: normal bone marrow differentiation in culture
# Assay type: cell-based
# Experimental: (§1) The CFU-GEMM assay was performed according to Fauser and Messner (1978, Blood, 52(6) 143-8) and Messner and Fausser (1980, Blut, 41(5) 327-33) with some variations. In brief, heparinized bone marrow cells were layered over Percoll (1.077 gm/ml) (Pharmacia Fine Chemical, Piscataway N.J.) and centrifuged at 400 g at 4° C. for 10 minutes to remove neutrophils and RBCs. The fractionated BM cells at 2×10^5 cells/ml were cultured in IMDM (OCl, Toronto) containing 0.9% (vol/vol) methylcellulose supplemented with 30% FCS (Cansera Rexdale, ON.) or normal human plasma, a cocktail of cytokines containing G-CSF (10 ng/ml, Amgen), IL-3 (40 U/ml, Immunex), MGF (50 ng/ml, Immunex), Erythropoietin (2 u/ml, Epprex) or TPO (10 ng/ml, Amgen), 5×10^−5M β-2-mercaptoethanol and the specified concentration of CR4. The culture mixture was plated in 1 ml volumes into 35 mm petri dishes and incubated at 37° C., 5% CO2 in a humidified atmosphere. All cultures were evaluated at 14 days for the number of BFU-E colonies (defined as aggregates of more than 500 hemoglobinized cells or, 3 or more erythroid subcolonies), OFU-GM colonies (defined as granulocyte or monocyte-macrophage cells or both), CFU-Meg colonies (comprising 4 or more megakaryocytes) and CFU-GEMM colonies (a mixed population comprising of all elements).
# as §1, with “1243-8)” for “143-8)”, “concentrations” for “concentration”, “CR19.” for “CR4.”, “hemaglobinized” for “hemoglobinized”, “subcolonies) and CFU-C” for “subcolonies), OFU-GM”, “both).” for “both), CFU-Meg colonies (comprising 4 or more megakaryocytes) and CFU-GEMM colonies (a mixed population comprising of all elements).”
# as §1, with “1243-8)” for “143-8)”, “variations (British Journal of Haematology, 1992, 80, p40-48).” for “variations.”, “test compound.” for “CR4.”, “CO2,” for “CO2”, “subcolonies) and CFU-C” for “subcolonies), OFU-GM”, “both).” for “both), CFU-Meg colonies (comprising 4 or more megakaryocytes) and CFU-GEMM colonies (a mixed population comprising of all elements).”
compound,measurement,setting,value
"N#C/C(=C\C=C\c1ccc(O)c(O)c1)C(=O)NCc1ccccc1 [CR4, (E,E)-2-(benzylaminocarbonyl)-3-(3,4-dihydroxystyryl)acrylonitrile]",CFU-GM colony numbers,"10 μM, 14 days (FIG. 1)",significantly stimulated
same,inhibition of BFU-E colony formation,"10 μM, 14 days (FIG. 1)",some inhibition
same,effect upon normal cell survival,at concentrations equivalent to those inhibiting AML-3 cells: 300-600 nM,no effect
same,effect upon normal cells,at concentrations equivalent to those inhibiting HuNS1 cells: high nanomolar to low micromolar (2.5 μM),no effect
same,effect upon normal cells,at concentrations equivalent to those inhibiting Ly-MN cells: nanomolar doses to 2.5 μM,no effect
same,effect upon normal cells,at concentrations equivalent to those inhibiting OCl-LY2 cells: high nanomolar to low micromolar (2.5 μM),no effect
same,effect upon normal cells,at concentrations equivalent to those inhibiting Ph+ ALL cells: low nanomolar doses (35-100),no effect
same,effect upon normal cells,at concentrations equivalent to those inhibiting Z119 cells: low nanomolar doses,no effect
same,toxicity upon normal bone marrow,"doses up to 5 μM, colonies at 14 days (FIG. 1)",negligible toxicity
same,normal cell growth and differentiation,"low nanomolar doses, long term exposure",unaffected
same,toxicity to normal cells incubated with compound,until concentrations of 10-20 μM or greater were achieved,minimal toxicity
